Values of other authors in US20130102469A1, “Method and compound for removing flora from sewer lines” (Swartz family dba Olvidium, priority 2011, published 2013).

Tested on: tree roots

## CNC(=S)[S-].[Na+] [Metham Sodium]
Inside the pipe and outside the pipe where the gas travels
  root kill: 100%

## N#Cc1c(Cl)cccc1Cl [Dichlobenil, 2,6 dichlorobenzonitrile]
Sewer line root control
  distance back from the contact site over which roots are killed: 1-2 ″

## c1cc[n+]2c(c1)-c1cccc[n+]1CC2 [Diquat]
Sewer line use, roots coated with organic detritus
  root kill (in words): spotty and inconsistent root kill
